From patent US20240246955A1, “TROPOMYOSIN RECEPTOR KINASE (TRK) DEGRADATION COMPOUNDS AND METHODS OF USE” (CULLGEN (SHANGHAI), INC., priority 2021, published 2024)

How the values were obtained:
TPM3-TRKA fusion protein = target: T1, TPM3-TRKA fusion protein (Homo sapiens, UniProt P04629); assay: TPM3-TRKA degradation in KM12 cells (Western blot); format: cell-based; settings: 16 hours, TRK protein, immunoblot; for inhibition at 0.01 µM: 10 nM; for inhibition at 0.1 µM: 100 nM
T1 construct: TPM3 (N-terminal part of tropomyosin alpha-3, natural fusion partner); endogenous in cells; host or cells: KM12 colon cancer cells; the other entry of the earlier key: TPM3 (P06753, Tropomyosin alpha-3 chain)
Description: Specific exemplary heterobifunctional compounds were characterized in KM12 cells. KM12 cells that express TPM3-TRKA fusion protein were treated with 10 nM or 100 nM heterobifunctional compounds disclosed herein or their corresponding warheads/inhibitors for 16 hours. Cells were collected, lysed and subject to immunoblotting using an antibody specific to TRK proteins.
KM12 cells were treated with heterobifunctional compounds at 10 nM or 100 nM for 16 hours.
Cultured cells were washed with cold PBS once and lysed in cold RIPA buffer supplemented with protease inhibitors and phosphatase inhibitors (Beyotime Biotechnology). The solutions were then incubated at 4° C. for 30 minutes with gentle agitation to fully lyse cells. Cell lysates were centrifuged at 13,000 rpm for 10 minutes at 4° C. and pellets were discarded. Total protein concentrations in the lysates were determined by BCA assays (Beyotime Biotechnology). Cell lysates were mixed with Laemmli loading buffer to 1× and heated at 99° C. for 5 min. Proteins were resolved on SDS-PAGE and visualized by chemiluminescence. Images were taken by a ChemiDoc MP Imaging system (Bio-Rad). Protein bands were quantitated using the software provided by Bio-Rad.
The percentage of TRK protein degradation of each compound at 10 nM and 100 nM was determined in KM12 cells as described in Methods. The percentage of degradation of each compound was indicated in the following categories: N/A: data not available; −: no degradation; +: degradation less than 50%; ++: degradation equal or greater than 50% but less than […]; +++: degradation equal or greater than 80%.

KM12 cells = assay: KM12 cell viability assay (CellTiter-Glo); format: cell-based; settings: for IC50: Homo sapiens, 72 h, KM12 cells, 3 days, CellTiter-Glo; for viability of KM12 cells: 11-point 3-fold serial dilution, 3 days (FIG. 3)
Description: The kinase activity of TRK is known to play important roles in tumors expressing TRK-fusion proteins, as TRK kinase inhibitors compromise cell proliferation, survival, and induce marked clinical responses (Amatu et al., 2016; Drilon et al., 2018; Drilon et al., 2017; Khotskaya et al., 2017). KM12 cells seeded in 96-well plates were treated with heterobifunctional compounds following a 11-point 3-fold serial dilution. Three days after treatment, cell viability was determined using the CellTiter-Glo kit, and normalized to the mean values of 3 replicates of untreated cells. Dose-dependent response was analyzed following the least-squares non-linear regression method using the GraphPad Prism software. Each data point in the figure represents the mean values of three technical replicates ±standard deviation.
KM12 cells seeded in 96-well plates were treated with heterobifunctional compounds following a 11-point 3-fold serial dilution for 3 days.
KM12, TRKA G595R mutated KM12, HEL, and other cells were cultured at 37° C. with 5% CO2 in DMEM or RPMI 1640 Medium supplemented with 10% fetal bovine serum. Cells were authenticated using the short tandem repeat (STR) assays. Mycoplasma test results were negative.
Cells were seeded at a density of 5000 cells per well in 96-well assay plates and treated with test compounds following a 11-point 3-fold serial dilution. Three days later, cell viability was determined using the CellTiter-Glo assay kit (Promega) according to the manufacturer's instructions. The dose-response curves were determined and IC50 values were calculated using the GraphPad Prism software following a nonlinear regression (least squares fit) method.

T1 sequence (P04629 with tags, fused parts or gaps): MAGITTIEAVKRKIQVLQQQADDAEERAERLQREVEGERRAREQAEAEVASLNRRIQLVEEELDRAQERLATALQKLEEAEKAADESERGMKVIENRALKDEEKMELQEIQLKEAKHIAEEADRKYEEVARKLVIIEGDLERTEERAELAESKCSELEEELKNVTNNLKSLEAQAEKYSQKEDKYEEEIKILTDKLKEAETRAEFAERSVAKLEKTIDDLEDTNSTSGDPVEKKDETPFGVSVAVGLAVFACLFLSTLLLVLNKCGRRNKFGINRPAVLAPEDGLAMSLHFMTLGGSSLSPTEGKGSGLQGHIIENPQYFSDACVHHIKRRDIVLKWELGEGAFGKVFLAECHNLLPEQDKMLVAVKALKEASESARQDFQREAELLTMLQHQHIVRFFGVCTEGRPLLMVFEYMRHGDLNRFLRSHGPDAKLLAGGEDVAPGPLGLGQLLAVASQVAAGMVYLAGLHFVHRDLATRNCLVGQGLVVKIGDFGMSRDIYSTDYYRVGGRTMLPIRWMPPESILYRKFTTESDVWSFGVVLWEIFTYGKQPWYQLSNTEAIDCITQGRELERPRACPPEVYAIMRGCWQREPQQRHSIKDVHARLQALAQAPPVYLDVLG

Row | Compound | inhibition at 0.01 µM (TPM3-TRKA fusion protein) | inhibition at 0.1 µM (TPM3-TRKA fusion protein) | IC50 (KM12 cells) | viability of KM12 cells (KM12 cells)
1 | COCCN1C[C@@H](NC(=O)Nc2c(C)c(-c3cnc(N4CCN(C(=O)CNC(=O)C[C@H](NC(=O)[C@@H]5C[C@@H](O)CN5C(=O)[C@@H](NC(=O)C5(F)CC5)C(C)(C)C)c5ccc(-c6scnc6C)cc5)CC4)nc3)nn2-c2ccccc2)[C@H](c2cccc(F)c2)C1 [CPD-011, (2S,4R)-1-((S)-2-(1-fluorocyclopropane-1-carboxamido)-3,3-dimethylbutanoyl)-N-((S)-3-((2-(4-(5-(5-(3-((3S,4R)-4-(3-fluorophenyl)-1-(2-methoxyethyl)pyrrolidin-3-yl)ureido)-4-methyl-1-phenyl-1H-pyrazol-3-yl)pyrimidin-2-yl)piperazin-1-yl)-2-oxoethyl)amino)-1-(4-(4-methylthiazol-5-yl)phenyl)-3-oxopropyl)-4-hydroxypyrrolidine-2-carboxamide] | < 50% | 50 to 800% | 119 nM | –
2 | COCCN1C[C@@H](NC(=O)Nc2c(C)c(-c3cnc(N4CCN(C(=O)CCOCCOCCOCCNC(=O)C[C@H](NC(=O)[C@@H]5C[C@@H](O)CN5C(=O)[C@@H](NC(=O)C5(F)CC5)C(C)(C)C)c5ccc(-c6scnc6C)cc5)CC4)nc3)nn2-c2ccccc2)[C@H](c2cccc(F)c2)C1 [CPD-017, (2S,4R)-1-((S)-2-(1-fluorocyclopropane-1-carboxamido)-3,3-dimethylbutanoyl)-N-((S)-16-(4-(5-(5-(3-((3S,4R)-4-(3-fluorophenyl)-1-(2-methoxyethyl)pyrrolidin-3-yl)ureido)-4-methyl-1-phenyl-1H-pyrazol-3-yl)pyrimidin-2-yl)piperazin-1-yl)-1-(4-(4-methylthiazol-5-yl)phenyl)-3,16-dioxo-7,10,13-trioxa-4-azahexadecyl)-4-hydroxypyrrolidine-2-carboxamide] | – | 50 to 800% | 445 nM | –
3 | COCCN1C[C@@H](NC(=O)Nc2c(C)c(-c3cnc(N4CCN(C(=O)CCCNc5ccc6c(c5)C(=O)N(C5CCC(=O)NC5=O)C6=O)CC4)nc3)nn2-c2ccccc2)[C@H](c2cccc(F)c2)C1 (stereo partly drawn) [CPD-002, 1-(3-(2-(4-(4-((2-(2,6-dioxopiperidin-3-yl)-1,3-dioxoisoindolin-5-yl)amino)butanoyl)piperazin-1-yl)pyrimidin-5-yl)-4-methyl-1-phenyl-1H-pyrazol-5-yl)-3-((3S,4R)-4-(3-fluorophenyl)-1-(2-methoxyethyl)pyrrolidin-3-yl)urea] | > 80% | > 80% | 9.7 nM | inhibited the viability
4 | COCCN1C[C@@H](NC(=O)Nc2c(C)c(-c3cnc(N4CCN(C(=O)CCCCCNc5cccc6c5C(=O)N(C5CCC(=O)NC5=O)C6=O)CC4)nc3)nn2-c2ccccc2)[C@H](c2cccc(F)c2)C1 (stereo partly drawn) [CPD-007, 1-(3-(2-(4-(6-((2-(2,6-dioxopiperidin-3-yl)-1,3-dioxoisoindolin-4-yl)amino)hexanoyl)piperazin-1-yl)pyrimidin-5-yl)-4-methyl-1-phenyl-1H-pyrazol-5-yl)-3-((3S,4R)-4-(3-fluorophenyl)-1-(2-methoxyethyl)pyrrolidin-3-yl)urea] | > 80% | > 80% | 10.6 nM | –
5 | COCCN1C[C@@H](NC(=O)Nc2c(C)c(-c3cnc(N4CCN(C(=O)CCCNc5cccc6c5C(=O)N(C5CCC(=O)NC5=O)C6=O)CC4)nc3)nn2-c2ccccc2)[C@H](c2cccc(F)c2)C1 (stereo partly drawn) [CPD-004, 1-(3-(2-(4-(4-((2-(2,6-dioxopiperidin-3-yl)-1,3-dioxoisoindolin-4-yl)amino)butanoyl)piperazin-1-yl)pyrimidin-5-yl)-4-methyl-1-phenyl-1H-pyrazol-5-yl)-3-((3S,4R)-4-(3-fluorophenyl)-1-(2-methoxyethyl)pyrrolidin-3-yl)urea] | 50 to 800% | 50 to 800% | 25.8 nM | –
6 | COCCN1C[C@@H](NC(=O)Nc2c(C)c(-c3cnc(N4CCN(C(=O)CCCNC(=O)C[C@H](NC(=O)[C@@H]5C[C@@H](O)CN5C(=O)[C@@H](NC(=O)C5(F)CC5)C(C)(C)C)c5ccc(-c6scnc6C)cc5)CC4)nc3)nn2-c2ccccc2)[C@H](c2cccc(F)c2)C1 [CPD-013, (2S,4R)-1-((S)-2-(1-fluorocyclopropane-1-carboxamido)-3,3-dimethylbutanoyl)-N-((S)-3-((4-(4-(5-(5-(3-((3S,4R)-4-(3-fluorophenyl)-1-(2-methoxyethyl)pyrrolidin-3-yl)ureido)-4-methyl-1-phenyl-1H-pyrazol-3-yl)pyrimidin-2-yl)piperazin-1-yl)-4-oxobutyl)amino)-1-(4-(4-methylthiazol-5-yl)phenyl)-3-oxopropyl)-4-hydroxypyrrolidine-2-carboxamide] | < 50% | 50 to 800% | 79.7 nM | –
7 | COCCN1C[C@@H](NC(=O)Nc2c(C)c(-c3cnc(N4CCN(C(=O)CCCCCCCNc5cccc6c5C(=O)N(C5CCC(=O)NC5=O)C6=O)CC4)nc3)nn2-c2ccccc2)[C@H](c2cccc(F)c2)C1 (stereo partly drawn) [CPD-009, 1-(3-(2-(4-(8-((2-(2,6-dioxopiperidin-3-yl)-1,3-dioxoisoindolin-4-yl)amino)octanoyl)piperazin-1-yl)pyrimidin-5-yl)-4-methyl-1-phenyl-1H-pyrazol-5-yl)-3-((3S,4R)-4-(3-fluorophenyl)-1-(2-methoxyethyl)pyrrolidin-3-yl)urea] | > 80% | > 80% | 13.6 nM | –

More lines, main results first:

Row | inhibition at 0.01 µM (TPM3-TRKA fusion protein) | inhibition at 0.1 µM (TPM3-TRKA fusion protein) | Compound | IC50 (KM12 cells) | viability of KM12 cells (KM12 cells)
8 | < 50% | 50 to 800% | COCCN1C[C@@H](NC(=O)Nc2c(C)c(-c3cnc(N4CCN(C(=O)CCCCCNC(=O)C[C@H](NC(=O)[C@@H]5C[C@@H](O)CN5C(=O)[C@@H](NC(=O)C5(F)CC5)C(C)(C)C)c5ccc(-c6scnc6C)cc5)CC4)nc3)nn2-c2ccccc2)[C@H](c2cccc(F)c2)C1 [CPD-012, (2S,4R)-1-((S)-2-(1-fluorocyclopropane-1-carboxamido)-3,3-dimethylbutanoyl)-N-((S)-3-((6-(4-(5-(5-(3-((3S,4R)-4-(3-fluorophenyl)-1-(2-methoxyethyl)pyrrolidin-3-yl)ureido)-4-methyl-1-phenyl-1H-pyrazol-3-yl)pyrimidin-2-yl)piperazin-1-yl)-6-oxohexyl)amino)-1-(4-(4-methylthiazol-5-yl)phenyl)-3-oxopropyl)-4-hydroxypyrrolidine-2-carboxamide] | 132 nM | –
9 | > 80% | > 80% | COCCN1C[C@@H](NC(=O)Nc2c(C)c(-c3cnc(N4CCN(C(=O)CNc5cccc6c5C(=O)N(C5CCC(=O)NC5=O)C6=O)CC4)nc3)nn2-c2ccccc2)[C@H](c2cccc(F)c2)C1 (stereo partly drawn) [CPD-003, 1-(3-(2-(4-((2-(2,6-dioxopiperidin-3-yl)-1,3-dioxoisoindolin-4-yl)glycyl)piperazin-1-yl)pyrimidin-5-yl)-4-methyl-1-phenyl-1H-pyrazol-5-yl)-3-((3S,4R)-4-(3-fluorophenyl)-1-(2-methoxyethyl)pyrrolidin-3-yl)urea] | 5.1 nM | inhibited the viability
10 | 50 to 800% | > 80% | COCCN1C[C@@H](NC(=O)Nc2c(C)c(-c3cnc(N4CCN(C(=O)CCOCCOCCOCCOCCNc5cccc6c5C(=O)N(C5CCC(=O)NC5=O)C6=O)CC4)nc3)nn2-c2ccccc2)[C@H](c2cccc(F)c2)C1 (stereo partly drawn) [CPD-010, 1-(3-(2-(4-(1-((2-(2,6-dioxopiperidin-3-yl)-1,3-dioxoisoindolin-4-yl)amino)-3,6,9,12-tetraoxapentadecan-15-oyl)piperazin-1-yl)pyrimidin-5-yl)-4-methyl-1-phenyl-1H-pyrazol-5-yl)-3-((3S,4R)-4-(3-fluorophenyl)-1-(2-methoxyethyl)pyrrolidin-3-yl)urea] | 86.1 nM | –
